Assay results reported in patent US10689377B2 (Mirati Therapeutics, Inc., priority 2017, dated 2020).

What follows are compounds tested against KRas G12C (Homo sapiens, UniProt P01116, G12C) (assay: Cellular inhibition of KRas G12C measured by Phospho-ERK in NCI-H358 cells). Conditions: pERK(Thr202/Tyr204) normalized with GAPDH, NCI-H358 cells, 3 hours; read-out: IC50.
Type: cell-based
Procedure, shortened: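 NCI-H358 cells were allowed to attach for 8-12 hours, then exposed to compounds for 3 hours at 0.5% DMSO final. After formaldehyde fixation and methanol permeabilization, phospho-ERK (Thr202/Tyr204) was detected by in-cell immunofluorescence and normalized to GAPDH; IC50 came from a 4-parameter fit of percent-of-DMSO values.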

KRas G12C, sequence (P01116 1-188 isoform P01116-2 G12C): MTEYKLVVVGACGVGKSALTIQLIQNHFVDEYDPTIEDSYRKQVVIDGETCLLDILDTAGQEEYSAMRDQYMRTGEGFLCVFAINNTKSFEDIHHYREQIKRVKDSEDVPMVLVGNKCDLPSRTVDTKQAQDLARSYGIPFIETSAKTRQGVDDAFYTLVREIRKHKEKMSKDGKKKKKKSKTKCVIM

SMILES	IC50 [nM]
C=CC(=O)N1CCN(c2nc(OC[C@@H]3CCCN3CC(=O)N(C)C)nc3c2CCN(c2cccc4ccccc24)C3)CC1CC#N (stereo partly drawn) [Example 398, 2-((2S)-2-(((4-(4-acryloyl-3-(cyanomethyl)piperazin-1-yl)-7-(naphthalen-1-yl)-5,6,7,8-tetrahydropyrido[3,4-d]pyrimidin-2-yl)oxy)methyl)pyrrolidin-1-yl)-N,N-dimethylacetamide]	0.1 to 1000
C=CC(=O)N1CCN(c2nc(OC[C@@H]3CCCN3CC)nc3c2CCN(c2cccc4ccccc24)C3)C[C@@H]1CC#N [Example 400, 2-((S)-1-acryloyl-4-(2-(((S)-1-ethylpyrrolidin-2-yl)methoxy)-7-(naphthalen-1-yl)-5,6,7,8-tetrahydropyrido[3,4-d]pyrimidin-4-yl)piperazin-2-yl)acetonitrile]	0.1 to 1000
CCN1CCC[C@H]1COc1nc2c(c(N3CCN(C(=O)/C=C/CN(C)C)[C@@H](CC#N)C3)n1)CCN(c1cccc3ccccc13)C2 [Example 401, 2-((S)-1-((E)-4-(dimethylamino)but-2-enoyl)-4-(2-(((S)-1-ethylpyrrolidin-2-yl)methoxy)-7-(naphthalen-1-yl)-5,6,7,8-tetrahydropyrido[3,4-d]pyrimidin-4-yl)piperazin-2-yl)acetonitrile]	0.1 to 1000
C=CC(=O)N1CCN(c2nc(OC[C@@H]3CCCN3CC(=O)N(C)C)nc3c2CCN(c2cccc4ccccc24)C3)C[C@@H]1CC#N [Example 402, 2-((S)-2-(((4-((S)-4-acryloyl-3-(cyanomethyl)piperazin-1-yl)-7-(naphthalen-1-yl)-5,6,7,8-tetrahydropyrido[3,4-d]pyrimidin-2-yl)oxy)methyl)pyrrolidin-1-yl)-N,N-dimethylacetamide]	0.1 to 1000
C=CC(=O)N1CCN(c2nc(N3CC[C@H](N(C)C)C3)nc3c2CCN(c2cccc4ccccc24)C3)C[C@@H]1CC#N [Example 403]	0.1 to 1000
Cc1cccc(N2CCc3c(nc(OC[C@@H]4CCCN4C)nc3N3CCN(C(=O)/C=C/CN(C)C)[C@@H](CC#N)C3)C2)c1C [Example 404, 2-((S)-1-((E)-4-(dimethylamino)but-2-enoyl)-4-(7-(2,3-dimethylphenyl)-2-(((S)-1-methylpyrrolidin-2-yl)methoxy)-5,6,7,8-tetrahydropyrido[3,4-d]pyrimidin-4-yl)piperazin-2-yl)acetonitrile]	0.1 to 1000
C=CC(=O)N1CCN(c2nc(N3CCCC(N(C)C)C3)nc3c2CCN(c2cccc4ccccc24)C3)C[C@@H]1CC#N (stereo partly drawn) [Example 405, 2-((2S)-1-acryloyl-4-(2-(3-(dimethylamino)piperidin-1-yl)-7-(naphthalen-1-yl)-5,6,7,8-tetrahydropyrido[3,4-d]pyrimidin-4-yl)piperazin-2-yl)acetonitrile]	0.1 to 1000
C=CC(=O)N1CCN(c2nc(OC[C@@H]3CCCN3C)nc3c2CCN(c2cccc(F)c2Cl)C3)C[C@@H]1CC#N [Example 406, 2-((S)-1-acryloyl-4-(7-(2-chloro-3-fluorophenyl)-2-(((S)-1-methylpyrrolidin-2-yl)methoxy)-5,6,7,8-tetrahydropyrido[3,4-d]pyrimidin-4-yl)piperazin-2-yl)acetonitrile]	0.1 to 1000
C=CC(=O)N1CCN(c2nc(OC[C@@H]3CCCN3C)nc3c2CCN(c2cccc(F)c2F)C3)C[C@@H]1CC#N [Example 407, 2-((S)-1-acryloyl-4-(7-(2,3-difluorophenyl)-2-(((S)-1-methylpyrrolidin-2-yl)methoxy)-5,6,7,8-tetrahydropyrido[3,4-d]pyrimidin-4-yl)piperazin-2-yl)acetonitrile]	> 1000
C=CC(=O)N1CCN(c2nc(NC[C@@H]3CCCN3C)nc3c2CCN(c2cccc4ccccc24)C3)C[C@@H]1CC#N [Example 408, 2-((S)-1-acryloyl-4-(2-((((S)-1-methylpyrrolidin-2-yl)methyl)amino)-7-(naphthalen-1-yl)-5,6,7,8-tetrahydropyrido[3,4-d]pyrimidin-4-yl)piperazin-2-yl)acetonitrile]	> 1000
